Measured values reported in US20120190635A1, “SELECTIVE OXIDATION OF C-H BONDS OF MODIFIED SUBSTRATES BY P450 MONOOXYGENASE” (THE REGENTS OF THE UNIVERSITY OF MICHIGAN, priority 2009, published 2012).
Values after ≈ are worked out from the molar mass of the structure shown.

Legend:
[1] = test system: Kocuria rhizophila ATCC9341; test: antibacterial MIC, microtiter dilution; details: for MIC: Kocuria rhizophila, ATCC9341, read-out: Minimal inhibitory concentration; for Minimal inhibitory concentration: Kocuria rhizophila ATCC9341, Nutrient broth
[2] = test system: Staphylococcus aureus ATCC6538P; test: antibacterial MIC, microtiter dilution; details: for MIC: Staphylococcus aureus, ATCC6538P, read-out: Minimal inhibitory concentration; for Minimal inhibitory concentration: Staphylococcus aureus ATCC6538P, LB
[3] = test system: Bacillus subtillis DHS5333; test: antibacterial MIC, microtiter dilution; details: for MIC: Bacillus, DHS5333, read-out: Minimal inhibitory concentration; for Minimal inhibitory concentration: Bacillus subtillis DHS5333, LB
Deinococcus radiodurans = test: antibacterial MIC, microtiter dilution; details: 60 h; for Minimal inhibitory concentration: Special media, 30° C.; for MIC: read-out: Minimal inhibitory concentration, Deinococcus radiodurans, Special media, 30° C.
Escherichia. coli TolC = test: antibacterial MIC, microtiter dilution; details: Mueller Hinten; for MIC: Escherichia coli, read-out: Minimal inhibitory concentration, E. coli W3110 TolC disruption mutant; for Minimal inhibitory concentration: E. coli W3110 TolC disruption mutant
S. aureus NorA = test: antibacterial MIC, microtiter dilution; details: for MIC: Staphylococcus aureus, read-out: Minimal inhibitory concentration; for Minimal inhibitory concentration: S. aureus 8325 NorA disruption mutant, Mueller Hinten
Acinetobacter baumannii = test: antibacterial MIC, microtiter dilution; details: for MIC: read-out: Minimal inhibitory concentration; for Minimal inhibitory concentration: Mueller Hinten
[4] = test system: Multidrug resistant S. aureus (MRSA); test: antibacterial MIC, microtiter dilution; details: for MIC: Staphylococcus aureus, MRSA, read-out: Minimal inhibitory concentration; for Minimal inhibitory concentration: Multidrug resistant S. aureus (MRSA), Mueller Hinten
PikCD50N-RhFRED = PikCD50N-RhFRED (Streptomyces venezuelae, UniProt O87605, D50N); type: biochemical; details: for Number of products: Table 1
PikCD50N-RhFRED, sequence (O87605 other isoform, or with tags, fused parts or gaps D50N): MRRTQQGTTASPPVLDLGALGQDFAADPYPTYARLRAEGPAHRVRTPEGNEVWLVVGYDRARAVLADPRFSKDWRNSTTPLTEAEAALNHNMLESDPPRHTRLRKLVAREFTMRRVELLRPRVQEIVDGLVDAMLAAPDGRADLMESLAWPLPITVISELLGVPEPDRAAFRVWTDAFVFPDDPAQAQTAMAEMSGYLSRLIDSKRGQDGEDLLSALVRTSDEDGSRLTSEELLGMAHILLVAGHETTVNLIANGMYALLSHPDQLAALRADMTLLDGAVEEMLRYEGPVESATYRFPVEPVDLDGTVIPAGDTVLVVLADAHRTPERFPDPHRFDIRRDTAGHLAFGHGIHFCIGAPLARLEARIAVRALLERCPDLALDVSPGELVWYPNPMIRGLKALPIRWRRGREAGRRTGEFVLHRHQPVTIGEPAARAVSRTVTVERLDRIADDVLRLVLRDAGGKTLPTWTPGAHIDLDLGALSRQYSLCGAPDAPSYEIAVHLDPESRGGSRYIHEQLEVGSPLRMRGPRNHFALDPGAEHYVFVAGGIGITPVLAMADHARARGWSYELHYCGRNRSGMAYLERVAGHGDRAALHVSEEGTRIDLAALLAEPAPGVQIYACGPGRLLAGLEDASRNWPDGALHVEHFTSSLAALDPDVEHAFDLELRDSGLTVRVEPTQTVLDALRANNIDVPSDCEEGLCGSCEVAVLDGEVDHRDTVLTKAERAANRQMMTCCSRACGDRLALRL

SMILES	MIC [1] [µM]	MIC [2] [µM]	MIC [3] [µM]	Minimal inhibitory concentration (Deinococcus radiodurans) [µM]	MIC (Escherichia. coli TolC) [µM]	MIC (S. aureus NorA) [µM]	MIC (Acinetobacter baumannii) [µM]	MIC [4] [µM]	MIC (Deinococcus radiodurans) [µM]	Minimal inhibitory concentration [1] [µM]	Minimal inhibitory concentration [2] [µM]	Minimal inhibitory concentration [3] [µM]	Minimal inhibitory concentration (Escherichia. coli TolC) [µM]	Minimal inhibitory concentration (S. aureus NorA) [µM]	Minimal inhibitory concentration (Acinetobacter baumannii) [µM]	Minimal inhibitory concentration [4] [µM]	Number of products (PikCD50N-RhFRED; PikCD50N-RhFRED)	yield and selectivity (number of product peaks) relative to 12 (PikCD50N-RhFRED; PikCD50N-RhFRED)	hydroxylation by PikC / ability to serve as substrate, in words (PikCD50N-RhFRED)
C[C@@H]1C[C@H](N(C)C)[C@@H](O)[C@H](OC2CCCCCCC(O)CCCCC2)O1 (single isomer, unassigned) [Compound 8-C7OH-a]	> 400	> 400	> 400	400 (≈ 149 µg/mL)	> 400	> 400	> 400	> 400	–	–	–	–	–	–	–	–	–	–	–
C[C@@H]1C[C@H](N(C)C)[C@@H](O)[C@H](OC2CCCCCCCC(O)CCCC2)O1 (stereo partly drawn) [Compound 8-C6OH-a, (2S,3R,4S,6R)-4-(dimethylamino)-2-(6-hydroxycyclotridecyloxy)-6-methyltetrahydro-2H-pyran-3-ol]	> 400	> 400	> 400	–	> 400	> 400	> 400	> 400	> 400	–	–	–	–	–	–	–	–	–	–
C#CCCCCCCCCCOC1OC(C)CC(N(C)C)C1O (stereo not drawn) [Compound 18, 4-(dimethylamino)-6-methyl-2-(undec-10-ynyloxy)-tetrahydro-2H-pyran-3-ol]	> 400	> 400	> 400	–	400 (≈ 130 µg/mL)	> 400	> 400	> 400	> 400	–	–	–	–	–	–	–	–	–	–
OC1CCCCCCCCCCCCCC1 [Cyclopentadecanol, reference compound]	> 400	> 400	> 400	–	> 400	> 400	> 400	> 400	> 400	–	–	–	–	–	–	–	–	–	–
C[C@@H]1C[C@H](N(C)C)[C@@H](O)[C@H](OC2CCCCCCCC(O)CCCC2)O1 (stereo partly drawn) [Compound 8-C6OH-b, (2S,3R,4S,6R)-4-(dimethylamino)-2-(6-hydroxycyclotridecyloxy)-6-methyltetrahydro-2H-pyran-3-ol]	–	–	–	400 (≈ 149 µg/mL)	–	–	–	–	–	>400	>400	>400	>400	>400	>400	>400	–	–	–
CC[C@H]1OC(=O)[C@H](C)[C@@H](O[C@@H]2O[C@H](C)C[C@H](N(C)C)[C@H]2O)[C@@H](C)C[C@@H](C)C(=O)/C=C/[C@]1(C)O [Compound 2, methymycin, reference compound]	50 (≈ 23.5 µg/mL)	100 (≈ 47 µg/mL)	100 (≈ 47 µg/mL)	–	50 (≈ 23.5 µg/mL)	100 (≈ 47 µg/mL)	> 400	> 400	200 (≈ 93.9 µg/mL)	–	–	–	–	–	–	–	–	–	–
CC[C@H]1OC(=O)[C@H](C)C(=O)[C@H](C)[C@@H](O[C@@H]2O[C@H](C)C[C@H](N(C)C)[C@H]2O)[C@@H](C)C[C@@H](C)C(=O)/C=C/[C@]1(C)O [Compound 5, pikromycin, reference compound]	–	–	–	100 (≈ 52.6 µg/mL)	–	–	–	–	–	6.2 (≈ 3.26 µg/mL)	25 (≈ 13.1 µg/mL)	12.5 (≈ 6.57 µg/mL)	100 (≈ 52.6 µg/mL)	12.5 (≈ 6.57 µg/mL)	>400	>400	–	–	–
CC1CC(N(C)C)C(O)C(OC2CCCC3CCCCC32)O1 (stereo not drawn) [Compound 14, 2-(Decahydronaphthalen-1-yloxy)-4-(dimethylamino)-6-methyltetrahydro-2H-pyran-3-ol]	> 400	> 400	> 400	–	> 400	> 400	> 400	> 400	> 400	–	–	–	–	–	–	–	0	–	–
CC[C@H]1OC(=O)[C@H](C)[C@@H](O[C@H]2C[C@@](C)(OC)[C@@H](O)[C@H](C)O2)[C@H](C)[C@@H](O[C@@H]2O[C@H](C)C[C@H](N(C)C)[C@H]2O)[C@](C)(O)C[C@@H](C)C(=O)[C@H](C)[C@@H](O)[C@]1(C)O [Erythromycin, reference compound]	< 0.8	< 0.8	< 0.8	–	< 0.8	< 0.8	25 (≈ 18.3 µg/mL)	> 100	6.2 (≈ 4.55 µg/mL)	–	–	–	–	–	–	–	–	–	–
C[C@@H]1C[C@H](N(C)C)[C@@H](O)[C@H](OC2CCCCCCC(O)CCCCC2)O1 (single isomer, unassigned) [Compound 8-C7OH-b]	–	–	–	100 (≈ 37.2 µg/mL)	–	–	–	–	–	>400	>400	>400	400 (≈ 149 µg/mL)	>400	>400	>400	–	–	–
CN(C)CCCOC1CCCCCCCCCCCCCC1 [Compound 24, 3-(cyclopentadecyloxy)-N,N-dimethylpropan-1-amine]	–	–	–	–	–	–	–	–	–	–	–	–	–	–	–	–	–	improved compared to 12	–
CCCCC#CCOC1OC(C)CC(N(C)C)C1O (stereo not drawn) [Compound 16, 4-(Dimethylamino)-2-(hept-2-ynyloxy)-6-methyltetrahydro-2H-pyran-3-ol]	–	–	–	–	–	–	–	–	–	–	–	–	–	–	–	–	0	–	–
CC[C@H]1OC(=O)[C@H](C)[C@@H](O[C@@H]2OC(C)CC(C)C2C)[C@@H](C)C[C@@H](C)C(=O)/C=C/[C@H]1C (stereo partly drawn) [Compound 1, YC-17, reference compound]	100 (≈ 42.3 µg/mL)	100 (≈ 42.3 µg/mL)	100 (≈ 42.3 µg/mL)	–	100 (≈ 42.3 µg/mL)	100 (≈ 42.3 µg/mL)	> 400	> 400	400 (≈ 169 µg/mL)	–	–	–	–	–	–	–	2	–	–
CC[C@H]1OC(=O)[C@H](C)C(=O)[C@H](C)[C@@H](O[C@@H]2O[C@H](C)C[C@H](N(C)C)[C@H]2O)[C@@H](C)C[C@@H](C)C(=O)/C=C/[C@H]1C [Compound 4, narbomycin, reference compound]	–	–	–	100 (≈ 51 µg/mL)	–	–	–	–	–	<3.1	6.2 (≈ 3.16 µg/mL)	<3.1	25 (≈ 12.7 µg/mL)	3.1 (≈ 1.58 µg/mL)	>400	>400	–	–	–
OC1CCCCCCCCCCCC1 [Cyclotridecanol, reference compound]	> 400	> 400	> 400	–	> 400	> 400	> 400	> 400	> 400	–	–	–	–	–	–	–	–	–	–
CC1CC(N(C)C)C(O)C(OC2CCCCC2)O1 (stereo not drawn) [Compound 13, 2-(Cyclohexyloxy)-4-(dimethylamino)-6-methyltetrahydro-2H-pyran-3-ol]	> 400	> 400	> 400	–	> 400	> 400	> 400	> 400	> 400	–	–	–	–	–	–	–	0	–	–
OC1CCCCCCCCCCC1 [Cyclododecanol, reference compound]	> 400	> 400	> 400	–	> 400	> 400	> 400	> 400	> 400	–	–	–	–	–	–	–	–	–	unable to serve as a substrate
